Assay results from patent US11560370B1, “5-membered heteroaryl carboxamide compounds for treatment of HBV” (Assembly Biosciences, Inc., priority 2018, dated 2023).

tested on: HBV; assay: Viral production from HepAD38 cells, viral load by qPCR of HBV core sequence; format: cell-based; conditions: 5 days, supernatant HBV DNA by qPCR, read-out: Viral Load EC50 Activity range
In short: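 HepAD38 cells in tetracycline-free medium with 2% FBS, 50,000 cells/well, treated 5 days at 37° C. with compound from 10 μM top concentration (1% DMSO final). Supernatant HBV DNA measured by TaqMan qPCR of core sequence against standards, versus DMSO wells; viability by CellTiter-Glo; EC50/CC50 by four-parameter fit.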

Row | SMILES | EC50
1 | Cn1nc(C2CC3CC(O)(COC(F)F)CC3C2)c(C(=O)Nc2ccc(F)c(Cl)c2)c1N (stereo not shown) [AIA-253-1] | < 100 nM
2 | CCC1OC[C@]2(CC3C[C@H](c4nn(C)c(N)c4C(=O)Nc4ccc(F)c(Cl)c4)C[C@@H]3C2)O1 (stereo partly shown) [AIA-255-5] | < 100 nM
3 | CC(C)C1(O)CC2C[C@@H](c3nn(C)c(N)c3C(=O)Nc3ccc(F)c(Cl)c3)C[C@H]2C1O (stereo partly shown) [AIA-257-1] | < 100 nM
4 | Cn1nc(C2CC3CC(O)(C(C)(C)O)CC3C2)c(C(=O)Nc2ccc(F)c(Cl)c2)c1N (stereo not shown) [AIA-257] | < 100 nM
5 | Cn1nc(C2CCN(c3ccccc3)C2)c(C(=O)Nc2ccc(F)c(Cl)c2)c1N (stereo not shown) [AIA-262] | 100 to 500 nM
6 | Cn1nc(C2CC3CC(O)(C(=O)NC4CC4)CC3C2)c(C(=O)Nc2ccc(F)c(Cl)c2)c1N (stereo not shown) [AIA-274-2, 5-Amino-N-(3-chloro-4-fluorophenyl)-3-(5-(cyclopropylcarbamoyl)-5-hydroxyoctahydropentalen-2-yl)-1-methyl-1H-pyrazole-4-carboxamide] | < 100 nM
7 | Cn1nc(C2CC3COC(=O)CC3C2)c(C(=O)Nc2ccc(F)c(Cl)c2)c1N (stereo not shown) [AIA-275] | < 100 nM
8 | COc1cccc([C@H]2CC[C@H](c3nn(C)c(N)c3C(=O)Nc3ccc(F)c(Cl)c3)C2)c1 [AIA-276C] | < 100 nM
9 | COc1cccc(C2CCC(c3nn(C)c(N)c3C(=O)Nc3ccc(F)c(Cl)c3)C2)c1 (stereo not shown) [AIA-276] | < 100 nM
10 | Cn1nc(C2CC3CC(O)(CSCCO)CC3C2)c(C(=O)Nc2ccc(F)c(Cl)c2)c1N (stereo not shown) [AIA-283] | < 100 nM
11 | Cn1nc(C2CC3CC(O)(CSCCN4CCOCC4)CC3C2)c(C(=O)Nc2ccc(F)c(Cl)c2)c1N (stereo not shown) [AIA-284] | < 100 nM
12 | COC1CC2CC(c3nn(C)c(N)c3C(=O)Nc3ccc(F)c(Cl)c3)CC2C1 (stereo not shown) [AIA-285] | < 100 nM
13 | CC(=O)NC1CC2CC(c3nn(C)c(N)c3C(=O)Nc3ccc(F)c(Cl)c3)CC2C1 (stereo not shown) [AIA-288] | < 100 nM
14 | Cn1nc(C2CC3CC4(CC3C2)OCCO4)c(C(=O)Nc2ccc(F)c(Cl)c2)c1N (stereo not shown) [AIA-290] | < 100 nM

same assay, conditions: Hepatitis B virus, HePAD38, 120 h, 5 days, supernatant HBV DNA by qPCR, read-out: Viral Load EC50 Activity range

Row | SMILES | EC50
15 | Cn1nc(C2CC3CC(O)(COCC(F)(F)F)CC3C2)c(C(=O)Nc2ccc(F)c(Cl)c2)c1N (stereo not shown) [AIA-254, 5-Amino-N-(3-chloro-4-fluorophenyl)-3-((2s,5s)-5-hydroxy-5-((2,2,2-trifluoroethoxy)methyl)octahydropentalen-2-yl)-1-methyl-1H-pyrazole-4-carboxamide] | < 100 nM
16 | Cn1nc(C2CC3CC(O)(CSCC(F)(F)F)CC3C2)c(C(=O)Nc2ccc(F)c(Cl)c2)c1N (stereo not shown) [AIA-258-1, 5-Amino-N-(3-chloro-4-fluorophenyl)-3-(5-hydroxy-5-(((2,2,2-trifluoroethyl)thio)methyl)octahydropentalen-2-yl)-1-methyl-1H-pyrazole-4-carboxamide] | < 100 nM
17 | Cn1nc(C2CC3CC(O)(C[S+]([O-])CC(F)(F)F)CC3C2)c(C(=O)Nc2ccc(F)c(Cl)c2)c1N (stereo not shown) [AIA-259-A, 5-Amino-N-(3-chloro-4-fluorophenyl)-3-((2r,5r)-5-hydroxy-5-((2,2,2-trifluoroethylsulfinyl)methyl)octahydropentalen-2-yl)-1-methyl-1H-pyrazole-4-carboxamide] | < 100 nM
18 | Cn1nc(C2CC3CC(O)(CSC(C)(C)C)CC3C2)c(C(=O)Nc2ccc(F)c(Cl)c2)c1N (stereo not shown) [AIA-262-1, 5-Amino-3-(5-((tert-butylthio)methyl)-5-hydroxyoctahydropentalen-2-yl)-N-(3-chloro-4-fluorophenyl)-1-methyl-1H-pyrazole-4-carboxamide] | < 100 nM
19 | CN(C)S(=O)(=O)CC1(O)CC2CC(c3nn(C)c(N)c3C(=O)Nc3ccc(F)c(Cl)c3)CC2C1 (stereo not shown) [AIA-265, 5-Amino-N-(3-chloro-4-fluorophenyl)-3-(5-((N,N-dimethylsulfamoyl)methyl)-5-hydroxyoctahydropentalen-2-yl)-1-methyl-1H-pyrazole-4-carboxamide] | < 100 nM
20 | CN(C)C(=O)CC1(O)CC2CC(c3nn(C)c(N)c3C(=O)Nc3ccc(F)c(Cl)c3)CC2C1 (stereo not shown) [AIA-270, 5-Amino-N-(3-chloro-4-fluorophenyl)-3-(5-(2-(dimethylamino)-2-oxoethyl)-5-hydroxyoctahydropentalen-2-yl)-1-methyl-1H-pyrazole-4-carboxamide] | < 100 nM
21 | Cn1nc(C2CCC(c3ccccc3Cl)C2)c(C(=O)Nc2ccc(F)c(Cl)c2)c1N (stereo not shown) [AIA-272, 5-Amino-N-(3-chloro-4-fluorophenyl)-3-(3-(2-chlorophenyl)cyclopentyl)-1-methyl-1H-pyrazole-4-carboxamide] | < 100 nM
22 | Cn1nc(C2CCC(c3ccc(Cl)cc3)C2)c(C(=O)Nc2ccc(F)c(Cl)c2)c1N (stereo not shown) [AIA-274, 5-Amino-N-(3-chloro-4-fluorophenyl)-3-(3-(4-chlorophenyl)cyclopentyl)-1-methyl-1H-pyrazole-4-carboxamide] | 100 to 500 nM
23 | Cn1nc(C2CC3CC(O)(C(=O)NC4CC4)CC3C2)c(C(=O)Nc2ccc(F)c(Cl)c2)c1N (stereo not shown) [AIA-274-1, 5-Amino-N-(3-chloro-4-fluorophenyl)-3-(5-(cyclopropylcarbamoyl)-5-hydroxyoctahydropentalen-2-yl)-1-methyl-1H-pyrazole-4-carboxamide] | < 100 nM
24 | Cn1nc(C2CCC(c3ccccc3)C2)c(C(=O)Nc2cc(F)c(F)c(Br)c2)c1N (stereo not shown) [AIA-278, 5-Amino-N-(3-bromo-4,5-difluorophenyl)-1-methyl-3-(3-phenylcyclopentyl)-1H-pyrazole-4-carboxamide] | 100 to 500 nM
25 | Cn1nc(C2CCC(c3ccccc3)C2)c(C(=O)Nc2ccc(F)c(C#N)c2)c1N (stereo not shown) [AIA-279, 5-Amino-N-(3-cyano-4-fluorophenyl)-1-methyl-3-(3-phenylcyclopentyl)-1H-pyrazole-4-carboxamide] | < 100 nM
26 | Cn1cnc(C2CCC(c3nn(C)c(N)c3C(=O)Nc3ccc(F)c(Cl)c3)C2)c1 (stereo not shown) [AIA-280, 5-Amino-N-(3-chloro-4-fluoro-phenyl)-1-methyl-3-[3-(1-methylimidazol-4-yl)cyclopentyl]pyrazole-4-carboxamide] | 100 to 500 nM
27 | Cn1nc(C2CCC(c3ccc(F)cc3)C2)c(C(=O)Nc2ccc(F)c(Cl)c2)c1N (stereo not shown) [AIA-281, 5-Amino-N-(3-chloro-4-fluorophenyl)-3-(3-(4-fluorophenyl)cyclopentyl)-1-methyl-1H-pyrazole-4-carboxamide] | < 100 nM
28 | Cn1nc(C2CCC(c3ccc(OC(F)(F)F)cc3)C2)c(C(=O)Nc2ccc(F)c(Cl)c2)c1N (stereo not shown) [AIA-292, 5-Amino-N-(3-chloro-4-fluorophenyl)-1-methyl-3-(3-(4-(trifluoromethoxy)phenyl)cyclopentyl)-1H-pyrazole-4-carboxamide] | 500 to 10000 nM
29 | CN(C)c1ccc(C2CCC(c3nn(C)c(N)c3C(=O)Nc3ccc(F)c(Cl)c3)C2)cc1 (stereo not shown) [AIA-293, 5-Amino-N-(3-chloro-4-fluorophenyl)-3-(3-(4-(dimethylamino)phenyl)cyclopentyl)-1-methyl-1H-pyrazole-4-carboxamide] | < 100 nM
30 | CC(=O)Nc1ccc(C2CCC(c3nn(C)c(N)c3C(=O)Nc3ccc(F)c(Cl)c3)C2)cc1 (stereo not shown) [AIA-294, 3-(3-(4-Acetamidophenyl)cyclopentyl)-5-amino-N-(3-chloro-4-fluorophenyl)-1-methyl-1H-pyrazole-4-carboxamide] | < 100 nM
31 | CC(C)Oc1ccc(C2CCC(c3nn(C)c(N)c3C(=O)Nc3ccc(F)c(Cl)c3)C2)cc1 (stereo not shown) [AIA-296, 5-Amino-N-(3-chloro-4-fluorophenyl)-3-(3-(4-isopropoxyphenyl)cyclopentyl)-1-methyl-1H-pyrazole-4-carboxamide] | < 100 nM
